Legend:
Experiment in all cases: relative viability (nuclei count vs DMSO), 5 days (fraction); higher = more cells survive
[1] = compound: COC1=C(C=C(C=C1)C2=CC3=NC=CN3C(=N2)NC4=C(C=CC=N4)C(=O)N)OC [BAY61-3606] + COc1cc2c(Oc3ccc(NC(=O)C4(C(=O)Nc5ccc(F)cc5)CC4)cc3F)ccnc2cc1OCCCN1CCOCC1 [Foretinib] (partner 0.25 µM)
Method in brief: (§1)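 Nuclei were stained with Hoechst during a one-step fixation (final 0.05% Triton X-100, 1% formaldehyde, 1 ug/ml Hoechst) carried out 5 days after dosing, then counted on 4× images. The cells, lung cancer lines in 1536-well plates, had been dosed by pin tool the day after seeding with one drug alone or a fixed anchor-drug dose plus five library-drug doses (not always all listed) in √10 steps. Relative viability is the nuclei count in treated wells divided by that in vehicle wells, and each value is the median of duplicate plates.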

[2] = compound: COc1cccc2c1C(=O)c1c(O)c3c(c(O)c1C2=O)C[C@@](O)(C(=O)CO)C[C@@H]3O[C@H]1C[C@H](N)[C@H](O)[C@H](C)O1 [Doxorubicin] + O=C(c1cc(Cc2n[nH]c(=O)c3ccccc23)ccc1F)N1CCN(C(=O)C2CC2)CC1 [Olaparib] (partner 8 µM)
Method in brief: as §1

[3] = compound: COc1cccc2c1C(=O)c1c(O)c3c(c(O)c1C2=O)C[C@@](O)(C(=O)CO)C[C@@H]3O[C@H]1C[C@H](N)[C@H](O)[C@H](C)O1 [Doxorubicin] + Cc1cc(Nc2cc(N3CCN(C)CC3)nc(Sc3ccc(NC(=O)C4CC4)cc3)n2)n[nH]1 [Tozasertib] (partner 0.1 µM)
Method in brief: as §1

[4] = compound: COC1=C(C=C(C=C1)C2=CC3=NC=CN3C(=N2)NC4=C(C=CC=N4)C(=O)N)OC [BAY61-3606] + CS(=O)(=O)N1CCN(Cc2cc3nc(-c4cccc5[nH]ncc45)nc(N4CCOCC4)c3s2)CC1 [Pictilisib] (partner 1 µM)
Method in brief: as §1

Cell Line | relative viability ([1]; first compound 0.02 µM) | relative viability ([1]; first compound 0.06325 µM) | relative viability ([1]; first compound 0.2 µM) | relative viability ([1]; first compound 0.6325 µM) | relative viability ([1]; first compound 2 µM) | relative viability ([2]; first compound 0.001 µM) | relative viability ([2]; first compound 0.003162 µM) | relative viability ([2]; first compound 0.01 µM) | relative viability ([2]; first compound 0.03162 µM) | relative viability ([2]; first compound 0.1 µM) | relative viability ([3]; first compound 0.001 µM) | relative viability ([3]; first compound 0.003162 µM) | relative viability ([3]; first compound 0.01 µM) | relative viability ([3]; first compound 0.03162 µM) | relative viability ([3]; first compound 0.1 µM) | relative viability ([4]; first compound 0.02 µM) | relative viability ([4]; first compound 0.06325 µM) | relative viability ([4]; first compound 0.2 µM) | relative viability ([4]; first compound 0.6325 µM) | relative viability ([4]; first compound 2 µM)
NCI-H1993 | 0.818 | 0.772 | 0.712 | 0.794 | 0.66 | 0.0056 | 0.942 | 1.03 | 0.817 | 0.962 | 0.593 | 0.657 | 0.555 | 0.58 | 0.591 | 0.871 | 0.764 | 0.755 | 0.868 | 0.804
NCI-H2170 | 0.993 | 1.03 | 1.02 | 0.523 | 0.782 | 0.617 | 0.735 | 0.633 | 0.602 | 0.704 | 0.741 | 0.711 | 0.651 | 0.581 | 0.701 | 0.368 | 0.28 | 0.308 | 0.389 | 0.265
LXF-289 | 0.966 | 0.971 | 0.978 | 0.988 | 0.944 | 1.03 | 1.12 | 0.998 | 1.07 | 1.15 | 0.205 | 0.192 | 0.192 | 0.221 | 0.2 | 0.846 | 0.83 | 0.782 | 0.805 | 0.84
NCI-H596 | 0.768 | 0.761 | 0.841 | 0.844 | 0.726 | 0.593 | 0.667 | 0.685 | 0.647 | 0.651 | 0.857 | 1.08 | 0.943 | 0.806 | 0.859 | 0.41 | 0.387 | 0.386 | 0.416 | 0.408
NCI-H3122 | 0.952 | 1.07 | 0.94 | 0.962 | 0.969 | 0.535 | 0.616 | 0.58 | 0.62 | 0.634 | 0.339 | 0.375 | 0.335 | 0.169 | 0.141 | 0.621 | 0.632 | 0.568 | 0.59 | 0.619
NCI-H2023 | 0.864 | 0.906 | 1.03 | 0.812 | 0.812 | 0.454 | 0.336 | 0.19 | 0.0859 | 0.0625 | 0.351 | 0.378 | 0.294 | 0.157 | 0.0799 | 0.275 | 0.264 | 0.277 | 0.251 | 0.206
HCC-15 | 0.99 | 0.981 | 0.963 | 1.05 | 0.83 | 0.731 | 0.657 | 0.692 | 0.522 | 0.491 |  | 0.428 | 0.454 | 0.201 | 0.116 | 0.848 | 0.65 | 0.697 | 0.769 | 0.665
HCC-78 | 0.519 | 0.516 | 0.568 | 0.545 | 0.578 | 0.866 | 0.994 | 1.04 | 0.799 | 0.701 | 0.491 | 0.44 | 0.403 | 0.353 | 0.388 | 0.297 | 0.226 | 0.251 | 0.158 | 0.167
COR-L23 | 0.999 | 0.944 | 0.963 | 0.992 | 0.865 | 0.361 | 0.38 | 0.29 | 0.147 | 0.131 | 0.227 | 0.186 | 0.201 | 0.123 | 0.122 | 0.933 | 0.871 | 0.866 | 0.871 | 0.449
HCC-827 | 1.04 | 1.01 | 1.11 | 1.07 | 1.03 | 0.653 | 0.65 | 0.66 | 0.62 | 0.579 | 0.45 | 0.391 | 0.407 | 0.416 | 0.432 | 1.03 | 0.893 | 1.15 | 1.09 | 0.915
NCI-H1355 | 0.981 | 0.911 | 0.922 | 0.992 | 0.761 | 0.732 | 0.688 | 0.694 | 0.704 | 0.85 | 0.632 | 0.508 | 0.52 | 0.443 | 0.598 | 0.508 | 0.378 | 0.389 | 0.374 | 0.302
RERF-LC-KJ | 0.899 | 0.922 | 0.828 | 0.886 | 0.779 | 0.906 | 0.784 | 0.55 | 0.3 | 0.261 | 0.538 | 0.406 | 0.398 | 0.233 | 0.233 | 0.532 | 0.411 | 0.59 | 0.577 | 0.441
NCI-H2126 | 1.4 | 1.21 | 1.06 | 1.13 | 0.959 | 0.908 | 0.962 | 0.916 | 0.941 | 0.907 | 0.902 | 0.752 | 0.774 | 0.229 | 0.251 | 0.543 | 0.503 | 0.492 | 0.51 | 0.447
BEN | 0.701 | 0.69 | 0.723 | 0.654 | 0.911 | 1.07 | 1.09 | 0.897 | 0.938 | 1.13 | 0.587 | 0.564 | 0.576 | 0.469 | 0.54 | 0.71 | 0.476 | 0.6 | 0.655 | 0.599
LCLC-97TM1 | 0.92 | 0.943 | 0.962 | 1.04 | 0.765 | 0.398 | 0.514 | 0.438 | 0.234 | 0.394 | 0.183 | 0.191 | 0.216 | 0.268 | 0.319 | 0.272 |  | 0.28 | 0.178 | 0.179
EKVX | 0.986 | 0.673 | 0.768 | 0.978 | 0.695 | 0.862 | 0.882 | 0.767 | 0.849 | 0.734 | 0.35 | 0.434 | 0.383 | 0.415 | 0.342 | 0.415 | 0.404 | 0.407 | 0.411 | 0.388
ABC-1 | 1.19 | 0.973 | 0.971 | 1.11 | 0.907 | 0.946 | 0.761 | 0.723 | 0.525 | 0.306 | 0.223 | 0.207 | 0.153 | 0.184 | 0.181 | 0.822 | 0.766 | 0.787 | 0.709 | 0.538
PC-14 | 0.992 | 0.957 | 0.911 | 0.963 | 0.931 | 0.239 | 0.257 | 0.203 | 0.0737 | 0.0408 | 0.598 | 0.573 | 0.599 | 0.59 | 0.487 | 0.647 | 0.605 | 0.654 | 0.994 | 0.589
NCI-H1651 | 0.886 | 0.713 | 0.765 | 0.88 | 0.739 | 0.216 | 0.182 | 0.205 | 0.184 | 0.198 | 0.643 | 0.793 | 0.648 | 0.319 | 0.157 | 0.628 | 0.689 | 0.623 | 0.531 | 0.401
NCI-H2087 | 1.21 | 1.08 | 1.05 | 1.06 | 0.924 | 0.652 | 0.528 | 0.445 | 0.443 | 0.372 |  | 0.278 | 0.248 | 0.165 | 0.156 | 1.05 | 0.937 | 0.865 | 0.878 | 0.666
NCI-H1944 | 0.912 | 0.815 | 0.858 | 0.886 | 0.396 | 0.403 | 0.37 | 0.384 | 0.378 | 0.423 | 0.24 | 0.267 | 0.231 | 0.235 | 0.239 | 0.384 | 0.346 | 0.337 | 0.326 | 0.281
LCLC-103H | 0.81 | 0.83 | 0.832 | 0.701 | 0.681 | 0.726 | 0.82 | 0.726 | 0.799 | 0.769 | 0.531 | 0.411 | 0.465 | 0.414 | 0.529 | 0.646 | 0.737 | 0.654 | 0.542 | 0.646
COR-L 105 | 1.32 | 1.36 | 0.884 | 1.05 | 0.605 | 0.748 | 0.698 | 0.668 | 0.497 | 0.468 | 0.424 | 0.368 | 0.443 | 0.334 | 0.344 | 0.505 | 0.385 | 0.434 | 0.373 | 0.346
NCI-H1437 | 1.23 | 1.22 | 1.31 | 1.38 | 1.28 | 0.639 | 0.631 | 0.567 | 0.416 | 0.417 | 0.411 | 0.414 | 0.405 | 0.379 | 0.283 | 0.532 | 0.44 | 0.507 | 0.442 | 0.391
H3255 | 0.969 | 1 | 0.841 | 0.995 | 0.829 | 0.541 | 0.553 | 0.541 | 0.48 | 0.424 | 0.59 | 0.759 | 0.573 | 0.604 | 0.539 | 0.516 | 0.432 | 0.463 | 0.467 | 0.447
NCI-H2009 | 1.34 | 1.31 | 1.22 | 1.26 | 1.06 | 0.735 | 0.557 | 0.64 | 0.457 | 0.315 | 0.748 | 0.745 | 0.678 | 0.524 | 0.284 | 0.897 | 0.849 | 0.851 | 0.751 | 0.52
NCI-H1755 | 0.932 | 0.867 | 0.974 | 0.913 | 0.882 | 0.837 | 0.911 | 0.818 | 0.873 | 0.896 | 0.605 | 0.556 | 0.576 | 0.552 | 0.598 | 0.532 | 0.35 | 0.463 | 0.415 | 0.385

— the supplement of paper PMC10307832
